Patent US20230234942A1, “COMPOUNDS FOR TREATING HUNTINGTON'S DISEASE” (PTC Therapeutics, Inc., priority 2020, published 2023)

Tested on: Endogenous Huntingtin Protein
Experiment: Endogenous Huntingtin Protein Assay (ELISA-based MSD electrochemiluminescence)
Format: cell-based
Conditions: Table 2; MSD plates coated with MW1 (expanded polyglutamine) or MAB2166 capture antibody; "inactive" = result above the detection limit of the assay
Description: Compounds of Formula (I) were tested using the Meso Scale Discovery (MSD) Assay provided in International Application No. PCT/US2016/066042, filed on Dec. 11, 2016 and claiming priority to U.S. Provisional Application 62/265,652 filed on Dec. 10, 2015, the entire contents of which are incorporated herein by reference.
The Endogenous Huntingtin Protein assay used in Biological Example 1 was developed using the ELISA-based MSD electrochemiluminescence assay platform.
Meso Scale Discovery (MSD) 96-well or 384-well plates were coated overnight at 4° C. with MW1 (expanded polyglutamine) or MAB2166 monoclonal antibody (for capture) at a concentration of 1 μg/mL in PBS (30 μL per well). Plates were then washed three times with 300 μL wash buffer (0.05% Tween-20 in PBS) and blocked (100 μL blocking buffer; 5% BSA in PBS) for 4-5 hours at room temperature with rotational shaking and then washed three times with wash buffer.
Samples (25 μL) were transferred to the antibody-coated MSD plate and incubated overnight at 4° C. After removal of the lysates, the plate was washed three times with wash buffer, and 25 μL of #56565 (Cell signaling; rabbit monoclonal) secondary antibody (diluted to 0.25 μg/mL in 0.05% Tween-20 in blocking buffer) was added to each well and incubated with shaking for 1 Hour at room temperature. Following incubation with the secondary antibody, the wells were rinsed with wash buffer after which 25 μL of goat anti-rabbit SULFO TAG secondary detection antibody (required aspect of the MSD system) (diluted to 0.25 μg/mL in 0.05% Tween-20 in blocking buffer) was added to each well and incubated with shaking for 1 hour at room temperature. After rinsing three times with wash buffer, 150 μL of read buffer T with surfactant (MSD) were added to each empty well, and the plate was imaged on a SI 6000 imager (MSD) according to manufacturers' instructions provided for 96- or 384-well plates.

Compound | IC50 [nM] | IC50 (nM)
Cc1cnc(-c2ccc(-c3cnc(N4CCN[C@@H](C5CC5)C4)nn3)c(O)c2)o1 [Cpd 232, 2-{3-[(3S)-3-cyclopropylpiperazin-1-yl]-1,2,4-triazin-6-yl}-5-(5-methyl-1,3-oxazol-2-yl)phenol] | 147 | –
Cc1nc2c(C3CC3)nc(-c3ccc(-c4cnc(N5C[C@@H](C)N[C@@H](C)C5)nn4)c(O)c3)cn2n1 [Cpd 109, 5-(8-cyclopropyl-2-methyl[1,2,4]triazolo[1,5-a]pyrazin-6-yl)-2-{3-[(3R,5S)-3,5-dimethylpiperazin-1-yl]-1,2,4-triazin-6-yl}phenol] | 22.1 | –
Cc1cc(C)n2nc(-c3ccc(-c4cnc(N5C[C@@H](C)N[C@@H](C)C5)nn4)c(O)c3)nc2n1 [Cpd 117, 2-{3-[(3R,5S)-3,5-dimethylpiperazin-1-yl]-1,2,4-triazin-6-yl}-5-(5,7-dimethyl[1,2,4]triazolo[1,5-a]pyrimidin-2-yl)phenol] | – | inactive
Oc1cc(-n2nccn2)cnc1-c1cnc(N2CCN[C@@H](C3CC3)C2)nn1 [Cpd 182, 2-{3-[(3S)-3-cyclopropylpiperazin-1-yl]-1,2,4-triazin-6-yl}-5-(2H-1,2,3-triazol-2-yl)pyridin-3-ol] | 173 | –
[2H]C([2H])([2H])Oc1cc(-c2ccc(-c3cnc(N4CCN[C@@H](C(C)C)C4)nn3)c(O)c2)ncn1 [Cpd 10, 5-{6-[(^2H3)methyloxy]pyrimidin-4-yl}-2-{3-[(3S)-3-(propan-2-yl)piperazin-1-yl]-1,2,4-triazin-6-yl}phenol] | 9.5 | –
CC(C)[C@H]1CN(c2ncc(-c3ccc(-c4ncsn4)cc3O)nn2)CCN1 [Cpd 239, 2-{3-[(3S)-3-(propan-2-yl)piperazin-1-yl]-1,2,4-triazin-6-yl}-5-(1,2,4-thiadiazol-3-yl)phenol] | 12.4 | –
[2H]C([2H])([2H])n1cc(-c2ccc(-c3cnc(N4CCNC(CC)C4)nn3)c(O)c2)cn1 (stereo not shown) [Cpd 39, 2-[3-(3-ethylpiperazin-1-yl)-1,2,4-triazin-6-yl]-5-[1-(^2H3)methyl-1H-pyrazol-4-yl]phenol] | 63.7 | –
C[C@@H]1CN(c2ncc(-c3ccc(-n4nccn4)cc3O)nn2)C[C@H](C)N1 [Cpd 54, 2-{3-[(3R,5S)-3,5-dimethylpiperazin-1-yl]-1,2,4-triazin-6-yl}-5-(2H-1,2,3-triazol-2-yl)phenol] | 440 | –
Oc1cc(-c2cn[nH]c2)ccc1-c1cnc(N2CCNC3(CCCC3)C2)nn1 [Cpd 43, 2-[3-(6,9-diazaspiro[4.5]decan-9-yl)-1,2,4-triazin-6-yl]-5-(1H-pyrazol-4-yl)phenol] | 116 | –
COc1cc(-c2ccc(-c3cnc(N4C[C@@H](C)N[C@@H](C(C)C)C4)nn3)c(O)c2)ccn1 [Cpd 257, 5-(2-methoxypyridin-4-yl)-2-{3-[(3R,5S)-3-methyl-5-(propan-2-yl)piperazin-1-yl]-1,2,4-triazin-6-yl}phenol] | 19.8 | –
COc1cc(-c2ccc(-c3cnc(N4C[C@@H](C)N[C@@H](C5CC5)C4)nn3)c(O)c2)nc(OC)n1 [Cpd 219, 2-{3-[(3S,5R)-3-cyclopropyl-5-methylpiperazin-1-yl]-1,2,4-triazin-6-yl}-5-(2,6-dimethoxypyrimidin-4-yl)phenol] | 13.7 | –
CN1CCn2ncc(-c3ccc(-c4cnc(N5CCN[C@@H](C6CC6)C5)nn4)c(O)c3)c21 [Cpd 275, 2-{3-[(3S)-3-cyclopropylpiperazin-1-yl]-1,2,4-triazin-6-yl}-5-(1-methyl-2,3-dihydro-IH-imidazo[1,2-b]pyrazol-7-yl)phenol] | 755 | –
CC(C)[C@H]1CN(c2ncc(-c3ccc(-c4ccc5nn(C)cc5c4)cc3O)nn2)CCN1 [Cpd 88, 5-(2-methyl-2H-indazol-5-yl)-2-{3-[(3S)-3-(propan-2-yl)piperazin-1-yl]-1,2,4-triazin-6-yl}phenol] | 6.5 | –
CC1(C2CN(c3ncc(-c4ccc(-c5cn[nH]c5)cc4O)nn3)CCN2)CC1 (stereo not shown) [Cpd 134, 2-{3-[3-(1-methylcyclopropyl)piperazin-1-yl]-1,2,4-triazin-6-yl}-5-(1H-pyrazol-4-yl)phenol] | 14.9 | –
[2H]C([2H])([2H])Oc1cc(-c2ccc(-c3cnc(N4CCN[C@@H](C5CC5)C4)nn3)c(O)c2)ncn1 [Cpd 2, 2-{3-[(3S)-3-cyclopropylpiperazin-1-yl]-1,2,4-triazin-6-yl}-5-{6-[(^2H3)methyloxy]pyrimidin-4-yl}phenol] | 3.9 | –
COc1cc(-c2ccc(-c3cnc(N4C[C@@H](C5CC5)N[C@@H](C)C4)nn3)c(O)c2)ncn1 [Cpd 226, 2-{3-[(3R,5S)-3-cyclopropyl-5-methylpiperazin-1-yl]-1,2,4-triazin-6-yl}-5-(6-methoxypyrimidin-4-yl)phenol] | 130 | –

Compound | IC50 [nM] | IC50 (nM)
Oc1cc(-c2ccsn2)ccc1-c1cnc(N2CCN[C@@H](C3CC3)C2)nn1 [Cpd 252, 2-{3-[(3S)-3-cyclopropylpiperazin-1-yl]-1,2,4-triazin-6-yl}-5-(1,2-thiazol-3-yl)phenol] | 16.5 | –
Cn1cc2cc(-c3ccc(-c4cnc(N5CCNC(CO)C5)nn4)c(O)c3)cc(F)c2n1 (stereo not shown) [Cpd 65, 5-(7-fluoro-2-methyl-2H-indazol-5-yl)-2-{3-[3-(hydroxymethyl)piperazin-1-yl]-1,2,4-triazin-6-yl}phenol] | 1.6 | –
CC(C)[C@H]1CN(c2ncc(-c3ccc(-c4cn5ncnc5cn4)cc3O)nn2)CCN1 [Cpd 128, 2-{3-[(3S)-3-(propan-2-yl)piperazin-1-yl]-1,2,4-triazin-6-yl}-5-([1,2,4]triazolo[1,5-a]pyrazin-6-yl)phenol] | 26.7 | –
CC[C@@H]1CN(c2ncc(-c3ccc(-c4cc(OC)ncn4)cc3O)nn2)C[C@H](C)N1 [Cpd 228, 2-{3-[(3R,5S)-3-ethyl-5-methylpiperazin-1-yl]-1,2,4-triazin-6-yl}-5-(6-methoxypyrimidin-4-yl)phenol] | 73.1 | –
CC(C)[C@H]1CN(c2ncc(-c3ccc(-c4ccns4)cc3O)nn2)CCN1 [Cpd 270, 2-{3-[(3S)-3-(propan-2-yl)piperazin-1-yl]-1,2,4-triazin-6-yl}-5-(1,2-thiazol-5-yl)phenol] | 29.2 | –
C[C@@H]1CN(c2ncc(-c3ccc(-c4cc5nn(C)nc5cn4)cc3O)nn2)C[C@H](C)N1 [Cpd 198, 2-{3-[(3R,5S)-3,5-dimethylpiperazin-1-yl]-1,2,4-triazin-6-yl}-5-(2-methyl-2H-[1,2,3]triazolo[4,5-c]pyridin-6-yl)phenol] | 12.5 | –
CC(C)[C@H]1CN(c2ncc(-c3ccc(-c4cn5ccnc5cn4)cc3O)nn2)CCN1 [Cpd 113, 5-(imidazo[1,2-a]pyrazin-6-yl)-2-{3-[(3S)-3-(propan-2-yl)piperazin-1-yl]-1,2,4-triazin-6-yl}phenol] | 36 | –
Oc1cc(-c2cn[nH]c2)ccc1-c1cnc(N2CCNC3(CC3)C2)nn1 [Cpd 55, 2-[3-(4,7-diazaspiro[2.5]octan-7-yl)-1,2,4-triazin-6-yl]-5-(1H-pyrazol-4-yl)phenol] | 548 | –
CC(C)[C@H]1CN(c2ncc(-c3ccc(-n4ccnc4)cc3O)nn2)CCN1 [Cpd 142, 5-(1H-imidazol-1-yl)-2-{3-[(3S)-3-(propan-2-yl)piperazin-1-yl]-1,2,4-triazin-6-yl}phenol] | 60.3 | –
Cc1nc2c(C)nc(-c3ccc(-c4cnc(N5CCN[C@@H](C(C)C)C5)nn4)c(O)c3)cn2n1 [Cpd 78, 5-(2,8-dimethyl[1,2,4]triazolo[1,5-a]pyrazin-6-yl)-2-{3-[(3S)-3-(propan-2-yl)piperazin-1-yl]-1,2,4-triazin-6-yl}phenol] | 5.1 | –
CC(C)[C@H]1CN(c2ncc(-c3ccc(-c4cnnn4C)cc3O)nn2)CCN1 [Cpd 261, 5-(1-methyl-1H-1,2,3-triazol-5-yl)-2-{3-[(3S)-3-(propan-2-yl)piperazin-1-yl]-1,2,4-triazin-6-yl}phenol] | 993 | –
CC[C@H]1CN(c2ncc(-c3ccc(-c4cn[nH]c4F)cc3O)nn2)C[C@@H](C)N1 [Cpd 223, 2-{3-[(3S,5R)-3-ethyl-5-methylpiperazin-1-yl]-1,2,4-triazin-6-yl]-5-(5-fluoro-1H-pyrazol-4-yl)phenol] | 7 | –
CC(C)[C@H]1CN(c2ncc(-c3ccc(-c4nccs4)cc3O)nn2)CCN1 [Cpd 185, 2-{3-[(3S)-3-(propan-2-yl)piperazin-1-yl]-1,2,4-triazin-6-yl}-5-(1,3-thiazol-2-yl)phenol] | 158 | –
Cc1ncc2cc(-c3ccc(-c4cnc(N5CCN[C@@H](C6CC6)C5)nn4)c(O)c3)ccn12 [Cpd 195, 2-{3-[(3S)-3-cyclopropylpiperazin-1-yl]-1,2,4-triazin-6-yl}-5-(3-methylimidazo[1,5-a]pyridin-7-yl)phenol] | 9.1 | –
Cc1nnn2cc(-c3ccc(-c4cnc(N5C[C@@H](C)N[C@@H](C)C5)nn4)c(O)c3)ccc12 [Cpd 206, 2-{3-[rac-(3R,5S)-3,5-dimethylpiperazin-1-yl]-1,2,4-triazin-6-yl}-5-(3-methyl[1,2,3]triazolo[1,5-a]pyridin-6-yl)phenol] | 33.7 | –
